Reference: ChEMBL document CHEMBL2086238, “Identification of ETP-46321, a potent and orally bioavailable PI3K α, δ inhibitor” (Bioorg Med Chem Lett, 2012)

Key:
[1] = test system: Serine/threonine-protein kinase B-raf (Homo sapiens), P15056 [V600E]; test: Inhibition of BRAF V600E mutant at 1 uM
[2] = biological target: Serine/threonine-protein kinase pim-2 (Homo sapiens) (UniProt Q9P1W9); test: Inhibition of PIM2 at 5 uM
[3] = biological target: Mitogen-activated protein kinase 8 (Homo sapiens) (UniProt P45983); test: Inhibition of JNK1 at 5 uM
[4] = biological target: Mitogen-activated protein kinase 8 (Homo sapiens) (UniProt P45983); test: Inhibition of JNK1 at 1 uM
[5] = biological target: Epidermal growth factor receptor (Homo sapiens) (UniProt P00533); test: Inhibition of EGFR at 1 uM
Epidermal growth factor receptor (Homo sapiens), sequence (P00533 whole entry): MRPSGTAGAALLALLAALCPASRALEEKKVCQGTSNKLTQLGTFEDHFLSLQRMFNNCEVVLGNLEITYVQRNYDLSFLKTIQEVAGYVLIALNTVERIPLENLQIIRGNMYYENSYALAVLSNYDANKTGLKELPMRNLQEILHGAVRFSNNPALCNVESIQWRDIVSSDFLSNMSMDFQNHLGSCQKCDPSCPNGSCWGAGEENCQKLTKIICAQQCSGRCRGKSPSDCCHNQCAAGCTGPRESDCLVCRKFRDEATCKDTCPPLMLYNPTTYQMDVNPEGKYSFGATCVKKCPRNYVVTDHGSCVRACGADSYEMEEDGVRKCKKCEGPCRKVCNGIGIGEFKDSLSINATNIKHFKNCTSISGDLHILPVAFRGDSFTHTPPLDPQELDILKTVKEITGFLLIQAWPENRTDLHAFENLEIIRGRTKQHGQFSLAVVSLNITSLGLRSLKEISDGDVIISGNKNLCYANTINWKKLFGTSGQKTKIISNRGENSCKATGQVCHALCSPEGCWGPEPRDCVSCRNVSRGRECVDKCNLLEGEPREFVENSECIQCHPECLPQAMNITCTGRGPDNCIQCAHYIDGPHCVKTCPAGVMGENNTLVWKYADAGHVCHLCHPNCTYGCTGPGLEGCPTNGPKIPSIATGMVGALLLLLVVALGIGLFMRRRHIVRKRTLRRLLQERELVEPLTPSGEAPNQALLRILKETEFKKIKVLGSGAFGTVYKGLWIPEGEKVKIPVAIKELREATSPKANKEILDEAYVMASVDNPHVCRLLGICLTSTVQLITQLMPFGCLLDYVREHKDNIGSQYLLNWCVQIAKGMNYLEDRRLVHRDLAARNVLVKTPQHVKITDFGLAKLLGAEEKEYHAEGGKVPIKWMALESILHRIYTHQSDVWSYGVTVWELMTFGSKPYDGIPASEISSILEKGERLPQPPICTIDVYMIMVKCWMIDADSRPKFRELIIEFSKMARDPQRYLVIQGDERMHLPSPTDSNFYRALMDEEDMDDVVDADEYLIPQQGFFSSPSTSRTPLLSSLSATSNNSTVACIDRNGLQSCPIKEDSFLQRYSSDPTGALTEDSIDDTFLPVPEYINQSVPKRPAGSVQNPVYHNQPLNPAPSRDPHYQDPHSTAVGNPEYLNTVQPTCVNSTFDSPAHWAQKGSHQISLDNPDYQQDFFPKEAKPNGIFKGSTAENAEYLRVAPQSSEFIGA

[6] = biological target: Mast/stem cell growth factor receptor Kit (Homo sapiens) (UniProt P10721); test: Inhibition of KIT at 5 uM
Mast/stem cell growth factor receptor Kit (Homo sapiens), sequence (P10721 whole entry): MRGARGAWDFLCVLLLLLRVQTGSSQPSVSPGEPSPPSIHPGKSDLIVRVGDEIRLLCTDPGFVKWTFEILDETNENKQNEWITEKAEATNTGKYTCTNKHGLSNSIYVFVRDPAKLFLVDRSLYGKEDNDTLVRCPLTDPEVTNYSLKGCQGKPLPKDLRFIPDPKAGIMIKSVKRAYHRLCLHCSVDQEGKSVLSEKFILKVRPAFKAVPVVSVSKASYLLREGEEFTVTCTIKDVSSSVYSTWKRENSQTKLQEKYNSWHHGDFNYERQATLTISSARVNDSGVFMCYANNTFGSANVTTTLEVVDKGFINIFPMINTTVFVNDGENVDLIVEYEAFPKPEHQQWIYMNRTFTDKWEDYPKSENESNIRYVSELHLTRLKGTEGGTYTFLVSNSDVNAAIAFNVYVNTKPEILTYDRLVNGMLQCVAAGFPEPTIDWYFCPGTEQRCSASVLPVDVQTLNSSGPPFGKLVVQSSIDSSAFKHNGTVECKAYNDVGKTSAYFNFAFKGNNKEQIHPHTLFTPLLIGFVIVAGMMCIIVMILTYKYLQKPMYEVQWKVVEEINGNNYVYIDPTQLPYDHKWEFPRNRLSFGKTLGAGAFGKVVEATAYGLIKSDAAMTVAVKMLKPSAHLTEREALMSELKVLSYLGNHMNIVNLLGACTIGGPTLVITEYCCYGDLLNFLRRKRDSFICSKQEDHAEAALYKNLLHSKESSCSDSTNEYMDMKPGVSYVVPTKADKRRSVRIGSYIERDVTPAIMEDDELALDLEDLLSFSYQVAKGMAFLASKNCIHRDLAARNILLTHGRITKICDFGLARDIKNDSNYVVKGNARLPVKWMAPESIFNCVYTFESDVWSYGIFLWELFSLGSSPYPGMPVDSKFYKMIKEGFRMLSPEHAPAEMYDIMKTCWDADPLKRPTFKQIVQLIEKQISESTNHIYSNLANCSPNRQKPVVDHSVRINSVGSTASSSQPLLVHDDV

[7] = biological target: T1, NUAK family SNF1-like kinase 1 (Homo sapiens) (UniProt O60285); test: Inhibition of ARK5 at 5 uM
T1 sequence (whole entry): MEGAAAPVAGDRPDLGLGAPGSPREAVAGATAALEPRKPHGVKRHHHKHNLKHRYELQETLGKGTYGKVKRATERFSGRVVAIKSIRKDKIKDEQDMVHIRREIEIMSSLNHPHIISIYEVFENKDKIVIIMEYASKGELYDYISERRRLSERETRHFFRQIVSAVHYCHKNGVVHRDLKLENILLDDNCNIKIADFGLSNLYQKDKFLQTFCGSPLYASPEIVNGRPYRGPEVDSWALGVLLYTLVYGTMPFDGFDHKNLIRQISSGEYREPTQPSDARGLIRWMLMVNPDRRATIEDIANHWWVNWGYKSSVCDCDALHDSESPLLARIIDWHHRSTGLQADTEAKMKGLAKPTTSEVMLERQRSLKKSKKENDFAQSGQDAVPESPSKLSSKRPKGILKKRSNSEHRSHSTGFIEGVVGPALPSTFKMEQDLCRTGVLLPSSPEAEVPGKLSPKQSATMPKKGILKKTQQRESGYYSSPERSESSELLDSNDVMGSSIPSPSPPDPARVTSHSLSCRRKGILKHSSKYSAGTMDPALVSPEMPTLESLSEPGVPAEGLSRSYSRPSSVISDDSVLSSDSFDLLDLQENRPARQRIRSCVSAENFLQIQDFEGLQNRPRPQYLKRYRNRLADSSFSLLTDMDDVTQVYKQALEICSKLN

[8] = biological target: T2, Inhibitor of nuclear factor kappa-B kinase subunit beta (Homo sapiens) (UniProt O14920); test: Inhibition of IKKbeta at 5 uM
T2 sequence (whole entry): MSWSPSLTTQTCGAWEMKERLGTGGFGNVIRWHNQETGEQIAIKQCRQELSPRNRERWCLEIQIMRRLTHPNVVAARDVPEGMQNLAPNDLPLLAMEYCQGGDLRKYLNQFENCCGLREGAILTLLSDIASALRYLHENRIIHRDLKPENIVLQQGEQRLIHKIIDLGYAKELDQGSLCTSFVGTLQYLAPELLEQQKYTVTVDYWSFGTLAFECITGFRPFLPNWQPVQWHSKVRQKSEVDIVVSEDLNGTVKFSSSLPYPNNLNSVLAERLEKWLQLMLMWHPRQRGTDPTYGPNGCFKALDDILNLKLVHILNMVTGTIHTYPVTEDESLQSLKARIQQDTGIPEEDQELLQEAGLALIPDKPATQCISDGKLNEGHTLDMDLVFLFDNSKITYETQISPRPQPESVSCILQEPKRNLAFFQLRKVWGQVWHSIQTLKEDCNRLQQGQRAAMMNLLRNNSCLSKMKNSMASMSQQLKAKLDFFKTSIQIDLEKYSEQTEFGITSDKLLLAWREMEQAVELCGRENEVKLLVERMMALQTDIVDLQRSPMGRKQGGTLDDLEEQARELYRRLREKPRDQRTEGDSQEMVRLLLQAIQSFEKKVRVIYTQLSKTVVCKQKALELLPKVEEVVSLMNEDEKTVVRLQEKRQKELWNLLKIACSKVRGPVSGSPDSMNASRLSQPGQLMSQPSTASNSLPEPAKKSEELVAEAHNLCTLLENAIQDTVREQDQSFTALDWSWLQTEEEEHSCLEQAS

[9] = biological target: Fibroblast growth factor receptor 1 (Homo sapiens) (UniProt P11362); test: Inhibition of FGFR1 at 1 uM
[10] = biological target: Insulin-like growth factor 1 receptor (Homo sapiens) (UniProt P08069); test: Inhibition of IGF1R at 1 uM
[11] = biological target: Mast/stem cell growth factor receptor Kit (Homo sapiens) (UniProt P10721); test: Inhibition of KIT at 1 uM
[12] = biological target: Insulin receptor (Homo sapiens) (UniProt P06213); test: Inhibition of INSR at 5 uM
Insulin receptor (Homo sapiens), sequence (P06213 28-758 limits assumed): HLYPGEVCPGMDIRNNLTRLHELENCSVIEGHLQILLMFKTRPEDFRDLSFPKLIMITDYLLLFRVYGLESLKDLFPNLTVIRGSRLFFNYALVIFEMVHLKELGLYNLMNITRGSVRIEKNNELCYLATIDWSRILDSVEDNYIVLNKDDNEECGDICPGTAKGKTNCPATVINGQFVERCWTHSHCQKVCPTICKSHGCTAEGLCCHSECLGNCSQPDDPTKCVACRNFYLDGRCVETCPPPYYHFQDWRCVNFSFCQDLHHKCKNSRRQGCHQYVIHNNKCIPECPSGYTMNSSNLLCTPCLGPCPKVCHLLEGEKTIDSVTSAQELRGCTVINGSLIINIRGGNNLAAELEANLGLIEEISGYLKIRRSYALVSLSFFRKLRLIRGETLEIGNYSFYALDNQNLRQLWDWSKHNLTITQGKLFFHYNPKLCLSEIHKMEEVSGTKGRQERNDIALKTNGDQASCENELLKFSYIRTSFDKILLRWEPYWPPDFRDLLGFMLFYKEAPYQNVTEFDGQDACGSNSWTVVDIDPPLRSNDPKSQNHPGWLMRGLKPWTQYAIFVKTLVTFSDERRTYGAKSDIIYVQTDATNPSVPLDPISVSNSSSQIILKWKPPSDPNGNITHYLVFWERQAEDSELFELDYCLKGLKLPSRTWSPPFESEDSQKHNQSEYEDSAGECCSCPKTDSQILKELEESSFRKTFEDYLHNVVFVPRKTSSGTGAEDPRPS
Insulin receptor (Homo sapiens), sequence (P06213 763-1382 limits assumed): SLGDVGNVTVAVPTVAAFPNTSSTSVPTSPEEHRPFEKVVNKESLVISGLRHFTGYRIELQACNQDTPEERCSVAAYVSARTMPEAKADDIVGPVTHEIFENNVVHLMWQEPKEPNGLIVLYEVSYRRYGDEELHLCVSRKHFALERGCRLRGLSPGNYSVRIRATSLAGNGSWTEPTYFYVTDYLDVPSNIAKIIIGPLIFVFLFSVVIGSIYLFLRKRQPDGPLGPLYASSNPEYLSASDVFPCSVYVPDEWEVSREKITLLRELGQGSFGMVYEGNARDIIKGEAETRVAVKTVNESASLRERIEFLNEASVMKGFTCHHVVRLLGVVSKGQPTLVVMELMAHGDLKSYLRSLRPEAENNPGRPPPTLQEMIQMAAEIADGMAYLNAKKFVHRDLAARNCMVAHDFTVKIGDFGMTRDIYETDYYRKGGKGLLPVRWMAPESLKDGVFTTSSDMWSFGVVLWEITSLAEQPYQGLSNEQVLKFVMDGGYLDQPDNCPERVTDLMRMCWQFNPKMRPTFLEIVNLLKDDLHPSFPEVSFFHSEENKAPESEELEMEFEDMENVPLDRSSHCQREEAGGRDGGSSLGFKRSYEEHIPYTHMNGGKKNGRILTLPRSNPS

[13] = biological target: Dual specificity tyrosine-phosphorylation-regulated kinase 1A (Homo sapiens) (UniProt Q13627); test: Inhibition of DYRK1A at 5 uM
[14] = biological target: Tyrosine-protein kinase JAK2 (Homo sapiens) (UniProt O60674); test: Inhibition of JAK2 at 5 uM
[15] = biological target: CYP2D6 (Homo sapiens, UniProt P10635); test: Inhibition of CYP2D6 at 10 uM; assay type: ADME
CYP2D6, sequence (P10635 whole entry): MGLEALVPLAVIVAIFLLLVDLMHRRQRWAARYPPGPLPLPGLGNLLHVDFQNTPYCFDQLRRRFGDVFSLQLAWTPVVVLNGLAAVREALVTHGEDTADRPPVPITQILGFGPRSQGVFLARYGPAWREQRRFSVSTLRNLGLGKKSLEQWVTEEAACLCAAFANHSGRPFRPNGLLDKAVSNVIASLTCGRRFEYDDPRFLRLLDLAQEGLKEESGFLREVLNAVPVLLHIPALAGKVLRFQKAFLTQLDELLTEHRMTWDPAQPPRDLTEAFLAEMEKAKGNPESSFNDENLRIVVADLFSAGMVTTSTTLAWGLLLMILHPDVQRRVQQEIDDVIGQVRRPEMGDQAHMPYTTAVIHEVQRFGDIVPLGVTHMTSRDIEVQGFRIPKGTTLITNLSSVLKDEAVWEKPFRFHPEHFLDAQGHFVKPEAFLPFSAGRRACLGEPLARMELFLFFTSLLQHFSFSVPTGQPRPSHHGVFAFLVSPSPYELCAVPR

[16] = biological target: CYP2C19 (Homo sapiens, UniProt P33261); test: Inhibition of CYP2C19 at 10 uM; assay type: ADME
CYP2C19, sequence (P33261 whole entry): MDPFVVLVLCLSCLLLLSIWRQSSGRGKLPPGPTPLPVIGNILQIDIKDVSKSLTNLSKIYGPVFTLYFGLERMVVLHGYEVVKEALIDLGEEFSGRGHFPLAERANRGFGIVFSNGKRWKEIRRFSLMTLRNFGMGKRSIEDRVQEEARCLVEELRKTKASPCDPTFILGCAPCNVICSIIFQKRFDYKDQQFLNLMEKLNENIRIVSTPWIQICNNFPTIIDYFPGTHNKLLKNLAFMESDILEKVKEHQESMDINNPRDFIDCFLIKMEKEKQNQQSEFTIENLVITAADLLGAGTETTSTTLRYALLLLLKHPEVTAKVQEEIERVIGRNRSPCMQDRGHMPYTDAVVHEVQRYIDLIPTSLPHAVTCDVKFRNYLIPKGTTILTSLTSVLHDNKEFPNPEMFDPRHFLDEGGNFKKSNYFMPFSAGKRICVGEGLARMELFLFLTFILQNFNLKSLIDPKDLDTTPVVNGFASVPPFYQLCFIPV

[17] = biological target: T3, CYP1A2 (Homo sapiens, UniProt P05177); test: Inhibition of CYP1A2 at 10 uM; assay type: ADME
T3 sequence (P05177 whole entry): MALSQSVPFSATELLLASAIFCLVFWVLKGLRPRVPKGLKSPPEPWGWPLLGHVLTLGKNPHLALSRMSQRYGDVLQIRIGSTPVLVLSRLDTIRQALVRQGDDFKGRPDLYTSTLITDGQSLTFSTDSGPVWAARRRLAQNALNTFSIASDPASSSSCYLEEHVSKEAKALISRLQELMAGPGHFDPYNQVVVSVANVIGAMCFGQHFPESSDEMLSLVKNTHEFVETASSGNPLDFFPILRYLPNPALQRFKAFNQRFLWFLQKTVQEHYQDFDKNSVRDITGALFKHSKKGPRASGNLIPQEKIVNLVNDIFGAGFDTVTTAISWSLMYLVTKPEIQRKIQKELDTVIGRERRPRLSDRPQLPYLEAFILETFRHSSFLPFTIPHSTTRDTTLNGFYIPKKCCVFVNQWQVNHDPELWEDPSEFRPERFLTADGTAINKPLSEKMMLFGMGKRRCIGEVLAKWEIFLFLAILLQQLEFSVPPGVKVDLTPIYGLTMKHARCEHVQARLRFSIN

[18] = biological target: Serine/threonine-protein kinase mTOR (Homo sapiens, UniProt P42345); test: Inhibition of mTOR

Serine/threonine-protein kinase pim-2 (Homo sapiens), sequence (Q9P1W9 whole entry, looked up): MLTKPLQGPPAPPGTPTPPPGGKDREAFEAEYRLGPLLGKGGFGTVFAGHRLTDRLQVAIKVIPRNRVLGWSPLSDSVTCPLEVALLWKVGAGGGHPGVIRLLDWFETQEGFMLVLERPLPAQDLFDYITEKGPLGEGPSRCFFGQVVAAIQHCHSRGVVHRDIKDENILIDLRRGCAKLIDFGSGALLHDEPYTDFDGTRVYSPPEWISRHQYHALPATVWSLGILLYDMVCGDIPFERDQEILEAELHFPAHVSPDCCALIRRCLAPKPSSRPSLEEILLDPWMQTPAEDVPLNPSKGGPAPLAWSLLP

SMILES	inhibition [1] [%]	inhibition [2] [%]	inhibition [3] [%]	inhibition [4] [%]	inhibition [5] [%]	inhibition [6] [%]	inhibition [7] [%]	inhibition [8] [%]	inhibition [9] [%]	inhibition [10] [%]	inhibition [11] [%]	inhibition [12] [%]	inhibition [13] [%]	inhibition [14] [%]	inhibition at 10 µM [15] [%]	inhibition at 10 µM [16] [%]	inhibition at 10 µM [17] [%]	IC50 [18] [µM]
Cc1nc(N)ncc1-c1cn2cc(CN3CCN(S(C)(=O)=O)CC3)nc2c(N2CCOCC2)n1	< 30	< 30	< 30	< 30	< 30	< 30	< 30	< 30	< 30	< 30	< 30	< 30	< 30	< 30	–	–	–	–
Cc1c(CN2CCN(S(C)(=O)=O)CC2)nc2c(N3CCOCC3)nc(-c3cnc(N)nc3)cn12	< 30	< 30	< 30	< 30	< 30	< 30	< 30	< 30	< 30	< 30	< 30	< 30	< 30	< 30	< 30	< 30	< 30	1.26
CS(=O)(=O)N1CCN(Cc2cn3c(Cl)c(-c4cnc(N)nc4)nc(N4CCOCC4)c3n2)CC1	< 30	< 30	< 30	< 30	< 30	< 30	< 30	< 30	< 30	< 30	< 30	< 30	< 30	< 30	< 30	< 30	< 30	5.71

Continued by falling IC50 [18], values first:

inhibition [1] [%]	inhibition [2] [%]	inhibition [3] [%]	inhibition [4] [%]	inhibition [5] [%]	inhibition [6] [%]	inhibition [7] [%]	inhibition [8] [%]	inhibition [9] [%]	inhibition [10] [%]	inhibition [11] [%]	inhibition [12] [%]	inhibition [13] [%]	inhibition [14] [%]	inhibition at 10 µM [15] [%]	inhibition at 10 µM [16] [%]	inhibition at 10 µM [17] [%]	IC50 [18] [µM]	SMILES
< 30	< 30	< 30	< 30	< 30	< 30	< 30	< 30	< 30	< 30	< 30	< 30	< 30	< 30	< 30	< 30	< 30	5.1	CS(=O)(=O)N1CCN(Cc2nc3c(N4CCOCC4)nc(-c4cnc(N)nc4)cn3c2Br)CC1
< 30	< 30	< 30	< 30	< 30	< 30	< 30	< 30	< 30	< 30	< 30	< 30	< 30	< 30	< 30	< 30	< 30	4.88	CS(=O)(=O)N1CCN(Cc2cn3cc(-c4cnc(N)nc4)nc(N4CCOCC4)c3n2)CC1
